From ChEMBL document CHEMBL1201862, “PubChem BioAssay data set” (2004) come the findings set out here.

Holding throughout (test): NCI tumour cell line growth inhibition, 48 h
Assay [1] relates to SNB-19.
Assay [2] deals with KM12.
Assay [3] deals with CAKI-1.
The subject of assay [4] is CCRF-CEM.
The subject of assay [5] is SW-620.
For assay [6], the system named is DU-145.
Assay [7] concerns LOX IMVI.
Assay [8] has as its system M14.
Assay [9] has as its system HCT-15.
In assay [10] the test system is Hs-578T.
Assay [11] relates to UACC-62.
The test system of assay [12] is EKVX.
Assay [13] relates to MDA-MB-231.
For assay [14], the system named is T47D.
The test system of assay [15] is SN12C.
The subject of assay [16] is HCC 2998.
Assay [17] deals with A498.
Assay [18] has as its system OVCAR-3.
For assay [19], the system named is NCI/ADR-RES.
Assay [20] has as its system COLO 205.

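Cultured in 96-well plates, cells were exposed to test compound for 48 hours across five concentrations. GI50 marks 50% less growth.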 Activity calls are given as the source filed them. No stated cut-off is given here; in the data, active = GI50 up to about 1.1 µM and inactive = higher. A value given as a limit tells only on which side of the number the result lay.

Consider `CCCCCCOc1ccc(NC2=C(Cl)C(=O)c3c(O)ccc(O)c3C2=O)cc1`, for which the GI50 was 3.15 µM (inactive) in assay [1]; 1.88 µM (inactive) in assay [2]; 5.28 µM (inactive) in assay [3]; 2.49 µM (inactive) in assay [4]; 2.2 µM (inactive) in assay [5]; 5.9 µM (inactive) in assay [6]. Moreover, the GI50 in assay [7] is 1.67 µM (inactive); in assay [8], 2.01 µM (inactive); in assay [9] it was 1.91 µM; in assay [10], 3.35 µM (inactive); in assay [11], 2.58 µM (inactive); in [12], > 10 µM (inactive). Moreover, the GI50 in assay [13] is 1.86 µM (inactive); in [14] it was 2.03 µM (inactive); in [15], 1.86 µM (inactive); in assay [16], 1.8 µM (inactive); in [17] it was 4.57 µM (inactive); in [18] it was 2.02 µM (inactive). Also, the GI50 in assay [19] is 2.55 µM (inactive); in assay [20], 1.78 µM (inactive).

With `COc1c(OC(C)=O)c(OC(C)=O)cc2c1-c1ccc(SC)c(=O)cc1C(NC(C)=O)CC2` (stereo not given), the GI50 in [1] is 0.42 µM (active); in assay [2] it was 0.504 µM (active); in assay [3], 6.89 µM (inactive); in assay [4], 0.384 µM (active); in assay [5], 0.959 µM (active); in [6], 0.583 µM (active). Also, the GI50 was 1.81 µM (inactive) in assay [7]; 0.698 µM (active) in assay [8]; 9.77 µM in assay [9]; 0.22 µM (active) in assay [10]; 0.397 µM (active) in [11]; 36.1 µM (inactive) in assay [12]. In addition, the GI50 in assay [13] is 0.512 µM (active); in [14], > 100 µM (inactive); in assay [15] it was 0.993 µM (active); in [16], 0.454 µM (active); in assay [17] it was 4.02 µM (inactive); in assay [18] it was 0.142 µM (active). Also, the GI50 in [19] was > 76.6 µM (inactive); in [20], 1.65 µM (inactive).

Consider `Cc1ccc(CC2(C(=O)O)Cc3ccc(C)cc3C2)cc1` (stereo not given), for which the GI50 in assay [1] was > 100 µM (inactive); in assay [2], 89.7 µM (inactive); in assay [3] it was > 100 µM (inactive); in [4], 49.2 µM (inactive); in [5], > 100 µM (inactive); in assay [6] it was > 100 µM (inactive). The GI50 is > 100 µM (inactive) in [7]; > 100 µM (inactive) in assay [8]; 54 µM in assay [9]; > 100 µM (inactive) in assay [10]; 56.5 µM (inactive) in assay [11]; 55.3 µM (inactive) in assay [12]. The GI50 in assay [13] was 89.1 µM (inactive); in assay [14] it was > 100 µM (inactive); in assay [15], > 100 µM (inactive); in assay [16], > 100 µM (inactive); in [17], > 100 µM (inactive); in assay [18], > 100 µM (inactive). Further, the GI50 is > 100 µM (inactive) in assay [19] and 84.3 µM (inactive) in assay [20].

Consider `O=c1[nH]c(=O)n(C2CC(O)C(CO)O2)c2nc3ccc4cc5ccccc5cc4c3nc12` (stereo not given), for which the GI50 is > 100 µM (inactive) in assay [1]; 51.6 µM (inactive) in assay [2]; > 100 µM (inactive) in assay [3]; > 100 µM (inactive) in [4]; > 100 µM (inactive) in assay [5]; > 100 µM (inactive) in assay [6]. Also, the GI50 was 14.8 µM (inactive) in [7]; > 100 µM (inactive) in assay [8]; greater than 100 µM in assay [9]; > 100 µM (inactive) in assay [10]; > 100 µM (inactive) in assay [11]; > 100 µM (inactive) in [12]. For the same compound, the GI50 in assay [13], in assay [14], in assay [15], in assay [16], in [17] and in [18] was > 100 µM (inactive) in each case. Also, the GI50 in assay [19] and in assay [20] was > 100 µM (inactive) in each case.

Regarding `CC(C(=O)O)C(C)(O)C(=O)O` (stereo not given), the GI50 in [1], in assay [2], in [3], in [4], in assay [5] and in assay [6] was > 100 µM (inactive) throughout. In addition, the GI50 in [7] was > 100 µM (inactive); in assay [8] it was > 100 µM (inactive); in [9], greater than 100 µM; in assay [10], > 100 µM (inactive); in assay [11], > 100 µM (inactive); in assay [12], > 100 µM (inactive). For the same compound, the GI50 in assay [13], in assay [14], in [15], in assay [16], in assay [17] and in [18] was > 100 µM (inactive) in each case. Besides, the GI50 in [19] and in assay [20] was > 100 µM (inactive) throughout.

As for `O=C(O)CCNc1[nH]cnc2ncnc1-2`, the GI50 in [1], in [2], in [3], in assay [4], in assay [5] and in assay [6] was > 100 µM (inactive) each time. Besides, the GI50 is > 100 µM (inactive) in assay [7]; > 100 µM (inactive) in [8]; greater than 100 µM in assay [9]; > 100 µM (inactive) in assay [10]; > 100 µM (inactive) in assay [11]; > 100 µM (inactive) in assay [12]. In addition, the GI50 in assay [13] is > 100 µM (inactive); in assay [14], > 100 µM (inactive); in assay [15] it was > 100 µM (inactive); in [16], > 100 µM (inactive); in assay [17], > 100 µM (inactive); in assay [18] it was 0.621 µM (active). In addition, the GI50 in assay [19] and in assay [20] was > 100 µM (inactive) in each case.

For the compound `CC1CCC2C(C)C(OC(=O)CCC(=O)O)OC3OC4(C)CCC1C32OO4` (stereo not given), the GI50 in assay [1] is 37.6 µM (inactive); in [2], 1.33 µM (inactive); in assay [3], 12.1 µM (inactive); in assay [4] it was 3.78 µM (inactive); in [5], 1.57 µM (inactive); in assay [6], 21.4 µM (inactive). Also, the GI50 is 1.06 µM (active) in [7]; 17.2 µM (inactive) in assay [8]; 0.388 µM in assay [9]; 16 µM (inactive) in assay [10]; 6.15 µM (inactive) in assay [11]; 6.27 µM (inactive) in assay [12]. Also, the GI50 in assay [13] is > 100 µM (inactive); in assay [14] it was 0.828 µM (active); in assay [15], 18 µM (inactive); in assay [16] it was 5.94 µM (inactive); in [17] it was 27.2 µM (inactive); in [18], 5.52 µM (inactive). The GI50 in assay [19] is 4.62 µM (inactive); in assay [20], 1.42 µM (inactive).

For `O=C(NC1CCCCC1)c1nn[nH]c1Cl`, the GI50 in assay [1], in [2], in assay [3], in assay [4], in assay [5] and in assay [6] was > 100 µM (inactive) throughout. The GI50 in assay [7] is > 100 µM (inactive); in assay [8], > 100 µM (inactive); in [9], greater than 100 µM; in [10], > 100 µM (inactive); in [11], > 100 µM (inactive); in assay [12], > 100 µM (inactive). The GI50 in assay [13], in assay [14], in assay [15], in assay [16], in assay [17] and in assay [18] was > 100 µM (inactive) each time. The GI50 in [19] and in assay [20] was > 100 µM (inactive) in each case.

Turning to `CCCCCC(/C=N/NC(N)=S)C(O)(C(F)(F)F)C(F)(F)F` (stereo not given), the GI50 in [1], in assay [2], in assay [3], in [4], in [5] and in assay [6] was > 10 µM (inactive) each time. In addition, the GI50 in [7] is > 10 µM (inactive); in assay [8] it was > 10 µM (inactive); in assay [9] it was greater than 10 µM; in assay [10], > 10 µM (inactive); in [11], > 10 µM (inactive); in assay [12], > 10 µM (inactive). Further, the GI50 in [13], in assay [14], in [15], in assay [16], in assay [17] and in [18] was > 10 µM (inactive) each time. The GI50 in [19] and in [20] was > 10 µM (inactive) each time.

For `Clc1ccc2oc(CCc3ccccc3)nc2c1`, the GI50 in assay [1] is 91.6 µM (inactive); in assay [2], 37.3 µM (inactive); in assay [3] it was 38.2 µM (inactive); in assay [4], 29.8 µM (inactive); in assay [5], 49.4 µM (inactive); in assay [6], 48.1 µM (inactive). Besides, the GI50 in [7] was > 100 µM (inactive); in assay [8] it was 59.8 µM (inactive); in assay [9], 38.5 µM; in [10], > 100 µM (inactive); in assay [11], > 100 µM (inactive); in [12] it was 32.5 µM (inactive). Also, the GI50 in assay [13] is > 100 µM (inactive); in assay [14] it was 20.5 µM (inactive); in assay [15], 66.1 µM (inactive); in [16], 27.4 µM (inactive); in assay [17], 26.3 µM (inactive); in [18] it was 21.3 µM (inactive). Besides, the GI50 in [19] was 40.8 µM (inactive); in assay [20], 41.7 µM (inactive).
